Data from ChEMBL document CHEMBL1201862, “PubChem BioAssay data set” (2004).
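Exposure lasted 48 hours, with cells grown in 96-well plates and compounds tested at five concentrations. The concentration for 50% growth inhibition is given as GI50.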 Activity calls are given as the source filed them. No stated cut-off is given here; in the data, active = GI50 up to about 1.1 µM and inactive = higher.

Tests used:
Test in all cases: NCI anticancer screen, dose series, 48 h
786-0 = test system: 786-0
A498 = test system: A498
A549 = test system: A549
ACHN = test system: ACHN
CAKI-1 = test system: CAKI-1
CCRF-CEM = test system: CCRF-CEM
COLO 205 = test system: COLO 205
DLD-1 = test system: DLD-1
DMS-114 = test system: DMS-114
DMS-273 = test system: DMS-273
EKVX = test system: EKVX
HCC 2998 = test system: HCC 2998
HCT-116 = test system: HCT-116
HCT-15 = test system: HCT-15
HL-60 = test system: HL-60
HOP-18 = test system: HOP-18
HOP-62 = test system: HOP-62
HOP-92 = test system: HOP-92
HT-29 = test system: HT-29
IGROV-1 = test system: IGROV-1
K562 = test system: K562
KM-20L2 = test system: KM-20L2
KM12 = test system: KM12
LOX IMVI = test system: LOX IMVI
LXFL 529 = test system: LXFL 529
M14 = test system: M14
M19-MEL = test system: M19-MEL
MOLT-4 = test system: MOLT-4
Malme-3M = test system: Malme-3M
NCI-H226 = test system: NCI-H226
NCI-H23 = test system: NCI-H23
NCI-H460 = test system: NCI-H460
NCI-H522 = test system: NCI-H522
OVCAR-3 = test system: OVCAR-3
OVCAR-4 = test system: OVCAR-4
OVCAR-5 = test system: OVCAR-5
OVCAR-8 = test system: OVCAR-8
RXF 393 = test system: RXF 393
SF-268 = test system: SF-268
SF-295 = test system: SF-295
SF-539 = test system: SF-539
SK-MEL-28 = test system: SK-MEL-28
SK-MEL-5 = test system: SK-MEL-5
SN12C = test system: SN12C
SNB-19 = test system: SNB-19
SNB-75 = test system: SNB-75
SNB-78 = test system: SNB-78
SR = test system: SR
SW-620 = test system: SW-620
TK-10 = test system: TK-10
U-251 = test system: U-251
UACC-257 = test system: UACC-257
UACC-62 = test system: UACC-62
UO-31 = test system: UO-31
MCF7 = test system: MCF7
NCI/ADR-RES = test system: NCI/ADR-RES
RPMI-8226 = test system: RPMI-8226
SK-MEL-2 = test system: SK-MEL-2
SK-OV-3 = test system: SK-OV-3
XF498 = test system: XF498

NC(CCSCC(F)(F)F)C(=O)O (stereo not drawn) was tested, and the GI50 (786-0) was > 100 µM (inactive), the GI50 (A498) was > 100 µM (inactive) and the GI50 (A549) was > 100 µM (inactive). For the same molecule, the GI50 (ACHN) was > 100 µM (inactive), the GI50 (CAKI-1) was > 100 µM (inactive) and the GI50 (CCRF-CEM) was > 100 µM (inactive). For the same molecule, the GI50 (COLO 205) was > 100 µM (inactive), the GI50 (DLD-1) was > 100 µM (inactive) and the GI50 (DMS-114) was > 100 µM (inactive). For the same molecule, the GI50 (DMS-273) was > 100 µM (inactive), the GI50 (EKVX) was > 100 µM (inactive) and the GI50 (HCC 2998) was > 100 µM (inactive). For the same molecule, the GI50 (HCT-116) was > 100 µM (inactive), the GI50 (HCT-15) was > 100 µM and the GI50 (HL-60) was > 100 µM (inactive). The GI50 (HOP-18) was > 100 µM (inactive), the GI50 (HOP-62) was > 100 µM (inactive) and the GI50 (HOP-92) was > 100 µM (inactive). The GI50 (HT-29) was > 100 µM (inactive), the GI50 (IGROV-1) was > 100 µM (inactive) and the GI50 (K562) was > 100 µM (inactive). For the same molecule, the GI50 (KM-20L2) was > 100 µM (inactive), the GI50 (KM12) was > 100 µM (inactive) and the GI50 (LOX IMVI) was > 100 µM (inactive). For the same molecule, the GI50 (LXFL 529) was > 100 µM (inactive), the GI50 (M14) was > 100 µM (inactive) and the GI50 (M19-MEL) was > 100 µM (inactive). For the same molecule, the GI50 (MOLT-4) was > 100 µM (inactive), the GI50 (Malme-3M) was > 100 µM (inactive) and the GI50 (NCI-H226) was > 100 µM (inactive). For the same molecule, the GI50 (NCI-H23) was > 100 µM (inactive), the GI50 (NCI-H460) was > 100 µM (inactive) and the GI50 (NCI-H522) was > 100 µM (inactive). For the same molecule, the GI50 (OVCAR-3) was > 100 µM (inactive), the GI50 (OVCAR-4) was > 100 µM (inactive) and the GI50 (OVCAR-5) was > 100 µM (inactive). For the same molecule, the GI50 (OVCAR-8) was > 100 µM (inactive), the GI50 (RXF 393) was > 100 µM (inactive) and the GI50 (SF-268) was > 100 µM (inactive). The GI50 (SF-295) was > 100 µM (inactive), the GI50 (SF-539) was > 100 µM (inactive) and the GI50 (SK-MEL-28) was > 100 µM (inactive). The GI50 (SK-MEL-5) was > 100 µM (inactive), the GI50 (SN12C) was > 100 µM (inactive) and the GI50 (SNB-19) was > 100 µM (inactive). The GI50 (SNB-75) was > 100 µM (inactive), the GI50 (SNB-78) was > 100 µM (inactive) and the GI50 (SR) was > 100 µM (inactive). For the same molecule, the GI50 (SW-620) was > 100 µM (inactive), the GI50 (TK-10) was > 100 µM (inactive) and the GI50 (U-251) was > 100 µM (inactive). For the same molecule, the GI50 (UACC-257) was > 100 µM (inactive), the GI50 (UACC-62) was > 100 µM (inactive) and the GI50 (UO-31) was > 100 µM (inactive).

COc1cc(/N=N\c2ccc(OC)c(S(=O)(=O)O)c2)c(C)cc1/N=N\c1ccc(/C=C/c2ccc(/N=[N+](/[O-])c3ccc(/C=C/c4ccc(/N=N/c5cc(C)c(/N=N\c6ccc(OC)c(S(=O)(=O)O)c6)cc5OC)cc4S(=O)(=O)O)c(S(=O)(=O)O)c3)cc2S(=O)(=O)O)c(S(=O)(=O)O)c1 was tested, and the GI50 (A498) was > 100 µM (inactive), the GI50 (A549) was > 100 µM (inactive) and the GI50 (CCRF-CEM) was > 100 µM (inactive). For the same molecule, the GI50 (COLO 205) was > 100 µM (inactive), the GI50 (DLD-1) was > 100 µM (inactive) and the GI50 (DMS-114) was > 100 µM (inactive). The GI50 (DMS-273) was > 68.1 µM (inactive), the GI50 (EKVX) was > 100 µM (inactive) and the GI50 (HCC 2998) was > 100 µM (inactive). For the same molecule, the GI50 (HCT-116) was > 100 µM (inactive), the GI50 (HCT-15) was > 100 µM and the GI50 (HL-60) was 69.8 µM (inactive). For the same molecule, the GI50 (HOP-18) was > 100 µM (inactive), the GI50 (HOP-62) was > 100 µM (inactive) and the GI50 (HOP-92) was > 75.2 µM (inactive). The GI50 (HT-29) was > 100 µM (inactive), the GI50 (IGROV-1) was > 100 µM (inactive) and the GI50 (K562) was > 100 µM (inactive). The GI50 (KM-20L2) was 95.1 µM (inactive), the GI50 (KM12) was > 100 µM (inactive) and the GI50 (LOX IMVI) was > 100 µM (inactive). The GI50 (M19-MEL) was > 100 µM (inactive), the GI50 (MCF7) was > 100 µM (inactive) and the GI50 (MOLT-4) was > 100 µM (inactive). For the same molecule, the GI50 (Malme-3M) was > 100 µM (inactive), the GI50 (NCI-H226) was > 52.1 µM (inactive) and the GI50 (NCI-H23) was > 100 µM (inactive). For the same molecule, the GI50 (NCI-H460) was > 100 µM (inactive), the GI50 (NCI-H522) was > 100 µM (inactive) and the GI50 (NCI/ADR-RES) was > 100 µM (inactive). For the same molecule, the GI50 (OVCAR-3) was > 100 µM (inactive), the GI50 (OVCAR-4) was > 100 µM (inactive) and the GI50 (OVCAR-5) was > 100 µM (inactive). The GI50 (OVCAR-8) was > 100 µM (inactive), the GI50 (RPMI-8226) was > 100 µM (inactive) and the GI50 (RXF 393) was > 100 µM (inactive). The GI50 (SF-268) was > 100 µM (inactive), the GI50 (SF-295) was > 100 µM (inactive) and the GI50 (SF-539) was > 100 µM (inactive). For the same molecule, the GI50 (SK-MEL-28) was > 100 µM (inactive), the GI50 (SK-MEL-2) was > 100 µM (inactive) and the GI50 (SK-MEL-5) was > 100 µM (inactive). The GI50 (SK-OV-3) was > 100 µM (inactive), the GI50 (SN12C) was > 100 µM (inactive) and the GI50 (SNB-19) was > 100 µM (inactive). The GI50 (SNB-75) was 58.2 µM (inactive), the GI50 (SNB-78) was > 100 µM (inactive) and the GI50 (SW-620) was > 100 µM (inactive). The GI50 (U-251) was > 100 µM (inactive), the GI50 (UACC-257) was > 100 µM (inactive) and the GI50 (UACC-62) was > 100 µM (inactive). The GI50 (UO-31) was > 100 µM (inactive) and the GI50 (XF498) was > 100 µM (inactive).

With O=c1c2ccccc2nc(-c2ccccc2)n1NC(=S)Nc1ccc(Cl)cc1[N+](=O)[O-] the GI50 (786-0) was > 100 µM (inactive), the GI50 (A498) was 94 µM (inactive) and the GI50 (A549) was 67.3 µM (inactive). The GI50 (ACHN) was > 100 µM (inactive), the GI50 (CAKI-1) was > 100 µM (inactive) and the GI50 (CCRF-CEM) was 62.4 µM (inactive). For the same molecule, the GI50 (COLO 205) was 51.5 µM (inactive), the GI50 (DLD-1) was 87.9 µM (inactive) and the GI50 (DMS-114) was 31.2 µM (inactive). For the same molecule, the GI50 (DMS-273) was 49.8 µM (inactive), the GI50 (HCT-116) was 54.2 µM (inactive) and the GI50 (HCT-15) was 35 µM. The GI50 (HL-60) was 35.3 µM (inactive), the GI50 (HOP-18) was 27.4 µM (inactive) and the GI50 (HOP-62) was 77.3 µM (inactive). The GI50 (HOP-92) was 55.1 µM (inactive), the GI50 (HT-29) was 69.3 µM (inactive) and the GI50 (IGROV-1) was > 100 µM (inactive). For the same molecule, the GI50 (K562) was 50.9 µM (inactive), the GI50 (KM12) was 66.4 µM (inactive) and the GI50 (LOX IMVI) was 56.8 µM (inactive). The GI50 (LXFL 529) was > 100 µM (inactive), the GI50 (M14) was > 100 µM (inactive) and the GI50 (M19-MEL) was 54.1 µM (inactive). For the same molecule, the GI50 (MOLT-4) was 73.3 µM (inactive), the GI50 (Malme-3M) was > 100 µM (inactive) and the GI50 (NCI-H226) was 20.3 µM (inactive). For the same molecule, the GI50 (NCI-H23) was > 100 µM (inactive), the GI50 (NCI-H460) was > 100 µM (inactive) and the GI50 (NCI-H522) was 42.7 µM (inactive). For the same molecule, the GI50 (OVCAR-4) was 88.5 µM (inactive), the GI50 (OVCAR-5) was > 100 µM (inactive) and the GI50 (OVCAR-8) was > 100 µM (inactive). For the same molecule, the GI50 (RPMI-8226) was 80.5 µM (inactive), the GI50 (RXF 393) was 22.9 µM (inactive) and the GI50 (SF-268) was > 100 µM (inactive). For the same molecule, the GI50 (SF-295) was 92.3 µM (inactive), the GI50 (SF-539) was 41.1 µM (inactive) and the GI50 (SK-MEL-28) was 21.7 µM (inactive). For the same molecule, the GI50 (SK-MEL-2) was > 100 µM (inactive), the GI50 (SK-MEL-5) was 58.7 µM (inactive) and the GI50 (SK-OV-3) was > 100 µM (inactive). For the same molecule, the GI50 (SN12C) was 65 µM (inactive), the GI50 (SNB-75) was 29.2 µM (inactive) and the GI50 (SR) was 33.3 µM (inactive). The GI50 (SW-620) was > 100 µM (inactive), the GI50 (TK-10) was > 100 µM (inactive) and the GI50 (U-251) was 80.4 µM (inactive). The GI50 (UACC-257) was 88.3 µM (inactive), the GI50 (UACC-62) was 39.7 µM (inactive) and the GI50 (UO-31) was 42.2 µM (inactive).
